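Five compound concentrations were applied to cells in 96-well plates for 48 hours; endpoints were derived by simple linear interpolation of the resulting dose-response curve. GI50 is the concentration that inhibits growth by half. The concentration for full growth arrest is given as TGI.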
Test system: DLD-1 colon
Assay: DTP human tumour cell line panel, 48 h

Row | Compound | GI50 [µM] | TGI [µM]
1 | CCOC(=O)Oc1c(OC)cc(C(=O)NC2CCc3cc(OC)c(OC)c(OC)c3-c3ccc(SC)c(=O)cc32)cc1OC (stereo not drawn) | 0.0223 | > 70
2 | CC(=O)Nc1ccc(C(=O)NN2C(=O)C(Cl)C2c2ccccc2)cc1 (stereo not drawn) |  | > 100
3 | CC(C)(C)OC(=O)NCC(=O)OCc1ccccc1 |  | > 100
4 | Cc1ccc(SC(C)/C=C/NNC2=NC(c3ccccc3)C(c3ccccc3)=NN2)cc1 (stereo not drawn) |  | > 100
5 | CC(C)(C)[SiH]12(OC(C(F)(F)F)(C(F)(F)F)c3ccccc31)OC(C(F)(F)F)(C(F)(F)F)c1ccccc12 |  | 13.3
6 | CSc1nc2c(nc(C)c(=O)n2C2OCC(OC(C)=O)C(OC(C)=O)C2OC(C)=O)c(=O)[nH]1 (stereo not drawn) |  | > 100
7 | O=S(O)CCCCSSCC(O)C(O)CSSCCCCS(=O)O (stereo not drawn) |  | > 100
8 | O=C1OC(c2ccccc2)=N/C1=C/C=C/c1ccco1 |  | > 100
9 | Cc1ccccc1N1C(=O)/C(=C/c2ccc(N(CCC#N)CCC#N)cc2)N=C1c1cc([N+](=O)[O-])ccc1Cl |  | > 100
10 | COc1ccc(C2S/C(=C\c3ccccc3O)C(=O)N2NC(=O)Cc2ccccc2)cc1 (stereo not drawn) |  | > 100
11 | CNC(=S)NC1CCCCC1NC(=S)NC (stereo not drawn) |  | > 100
12 | CC1OC(n2cc(F)c(=O)[nH]c2=O)C=CC1O (stereo not drawn) |  | > 100
13 | C=C(C=O)[C@@H]1C2OC(=O)C(=C)[C@@H]2CC(O)[C@@]1(C)CC (stereo partly drawn) |  | 9.7
14 | C=C(CCCCC)CN1CCCC1[C@@](C)(O)CC(=O)OCC (stereo partly drawn) |  | > 100
15 | O=C1c2ccccc2C(=O)C1(Cl)C1(S(=O)(=O)O)c2ccccc2-c2ccccc21 |  | > 100

Test system: DMS 273 small cell lung
Assay: DTP human tumour cell line panel, 48 h

Row | Compound | TGI [µM] | GI50 [µM]
16 | O=[n+]1c2c(n([O-])c3ccccc31)CCCCCCCCCC2 | > 100 | 
17 | CNC(=S)N(C)C(=S)Nn1c(=O)c(C)nn(C)c1=S | > 100 | 
18 | O=C1CCCC/C(=C/c2ccccc2)N1 | > 100 | 
19 | O=C1CN=C(C[N+](=O)[O-])c2ccccc21 | > 100 | 
20 | CCCCN(CCCC)CC(C(=O)Nc1ccc([N+](=O)[O-])cc1[N+](=O)[O-])/C(C)=N\NC(=S)NN (stereo not drawn) | > 100 | 
21 | S=C(N/N=C/c1ccco1)NC12CC3CC(CC(C3)C1)C2 | > 100 | 
22 | CS(=O)(=O)N/N=C/CN1C(=O)c2ccccc2C1=O | > 100 | 
23 | CC(=O)O.CC(=O)O.CC(=O)O.CC(=O)O.CC(=O)O.CC(=O)O.O.[Ti].[Ti] | > 100 | > 100
24 | COC(=O)C1=C(c2ccc3c(c2)OCO3)O[C@H](c2cc(OC)c(OC)c(OC)c2)[C@H]1COC(C)=O | > 100 | 
25 | O=[N+]([O-])c1nccn1CC(O)c1ccc(F)cc1 (stereo not drawn) | > 100 | 
26 | COC(=O)c1cc2c3ccccc3n(C(C)=O)c2cn1 | > 100 | 
27 | O=C1c2ccccc2C2(Br)C(=O)c3ccccc3C12 (stereo not drawn) | 42.5 | 
28 | O=S(=O)([O-])c1ccc2c(c1)-c1nc-2nc2[n-]c(nc3nc(nc4[n-]c(n1)c1ccc(S(=O)(=O)[O-])cc41)-c1cc(S(=O)(=O)[O-])ccc1-3)c1ccc(S(=O)(=O)[O-])cc21.[Cu+2].[Na+] | > 100 | 6.07
29 | CCCCOC(=O)C1C(c2ccc(Cl)cc2)NC(c2ccc(Cl)cc2)C(C(=O)OCCCC)S1(=O)=O (stereo not drawn) | > 100 | 
30 | Cc1cc(Br)cc(C)c1NC(=O)C(=O)C(C(=O)c1ccc2ccccc2c1)C1OC(=O)c2ccccc21 (stereo not drawn) | 86 | 
31 | CCOC(=O)Oc1c(OC)cc(C(=O)NC2CCc3cc(OC)c(OC)c(OC)c3-c3ccc(SC)c(=O)cc32)cc1OC (stereo not drawn) | > 70 | 
32 | CC(=O)Nc1ccc(C(=O)NN2C(=O)C(Cl)C2c2ccccc2)cc1 (stereo not drawn) | > 100 | 
33 | CC(C)(C)OC(=O)NCC(=O)OCc1ccccc1 | > 100 | 
34 | Cc1ccc(SC(C)/C=C/NNC2=NC(c3ccccc3)C(c3ccccc3)=NN2)cc1 (stereo not drawn) | > 100 | 
35 | CC(C)(C)[SiH]12(OC(C(F)(F)F)(C(F)(F)F)c3ccccc31)OC(C(F)(F)F)(C(F)(F)F)c1ccccc12 | 24.3 | 
36 | CSc1nc2c(nc(C)c(=O)n2C2OCC(OC(C)=O)C(OC(C)=O)C2OC(C)=O)c(=O)[nH]1 (stereo not drawn) | > 100 | 
37 | O=S(O)CCCCSSCC(O)C(O)CSSCCCCS(=O)O (stereo not drawn) | > 100 | 
38 | Cc1ccccc1N1C(=O)/C(=C/c2ccc(N(CCC#N)CCC#N)cc2)N=C1c1cc([N+](=O)[O-])ccc1Cl | > 100 | 
39 | COc1ccc(C2S/C(=C\c3ccccc3O)C(=O)N2NC(=O)Cc2ccccc2)cc1 (stereo not drawn) | > 100 | 
40 | Cc1ccc(S(=O)(=O)NCC2CCCCC2=O)cc1 (stereo not drawn) | > 100 | 
41 | CNC(=S)NC1CCCCC1NC(=S)NC (stereo not drawn) | > 100 | 
42 | CC1OC(n2cc(F)c(=O)[nH]c2=O)C=CC1O (stereo not drawn) | > 100 | 
43 | C=C(CCCCC)CN1CCCC1[C@@](C)(O)CC(=O)OCC (stereo partly drawn) | > 100 | 
44 | O=C1c2ccccc2C(=O)C1(Cl)C1(S(=O)(=O)O)c2ccccc2-c2ccccc21 | > 100 | 

Test system: HCC-2998 colon
Assay: DTP human tumour cell line panel, 48 h

Row | Compound | TGI [µM]
45 | O=C1CCCC/C(=C/c2ccccc2)N1 | > 100

From PubChem BioAssay (NCI)
